The nature of series [1]: excess molar enthalpy (molar enthalpy of mixing); xn = mol fraction of the nth substance listed. The settings on record: 298.15 K, 101.3 kPa, Liquid.
For series [2] the following is noted: 298.15 K; 101.33 kPa; Liquid.

SMILES strings stand for the structures. ± gives the expanded uncertainty stated by the source.

In the case of `CC(=O)CC(C)C` [4-methylpentan-2-one] + CCCCCO, the excess molar enthalpy in series [1] (x1 = 0.1008) is 0.13 ± 0.00311 kcal/mol; in series [1] (x1 = 0.2043) it was 0.224 ± 0.00502 kcal/mol; in series [1] (x1 = 0.304), 0.286 ± 0.00621 kcal/mol; in series [1] (x1 = 0.403), 0.322 ± 0.00693 kcal/mol; in series [1] (x1 = 0.4035), 0.324 ± 0.00693 kcal/mol; in series [1] (x1 = 0.503) it was 0.341 ± 0.00717 kcal/mol. For the same molecule, the excess molar enthalpy is 0.337 ± 0.00717 kcal/mol in series [1] (x1 = 0.5035); 0.334 ± 0.00717 kcal/mol in series [1] (x1 = 0.6017); 0.303 ± 0.00645 kcal/mol in series [1] (x1 = 0.7007); 0.242 ± 0.00526 kcal/mol in series [1] (x1 = 0.7996); 0.144 ± 0.00335 kcal/mol in series [1] (x1 = 0.9002).

For `CC(=O)CC(C)C` [4-methylpentan-2-one] + CCO, the excess molar enthalpy in series [1] (x1 = 0.0772) was found to be 0.0649 ± 0.00179 kcal/mol; in series [1] (x1 = 0.1571), 0.122 ± 0.00287 kcal/mol; in series [1] (x1 = 0.2369), 0.169 ± 0.00382 kcal/mol; in series [1] (x1 = 0.2947), 0.208 ± 0.00454 kcal/mol; in series [1] (x1 = 0.3977) it was 0.251 ± 0.0055 kcal/mol; in series [1] (x1 = 0.5), 0.279 ± 0.00598 kcal/mol. Also, the excess molar enthalpy in series [1] (x1 = 0.5995) was 0.287 ± 0.00621 kcal/mol; in series [1] (x1 = 0.6981) it was 0.273 ± 0.00598 kcal/mol; in series [1] (x1 = 0.7954), 0.232 ± 0.00502 kcal/mol; in series [1] (x1 = 0.897), 0.149 ± 0.00359 kcal/mol.

Consider `CO` [methanol], for which, in series [2], the mass density (as a rule, the mass of a sample divided by its volume) is given as 786.5 ± 0.61 kg/m3.

As to `CCCO` [propan-1-ol], the mass density in series [2] worked out at 799.51 ± 0.57 kg/m3.

Regarding `CCCCCO` [pentan-1-ol], the mass density in series [2] was found to be 810.88 ± 0.99 kg/m3.

As for `CC(=O)CC(C)C` [4-methylpentan-2-one] + CCCO, the excess molar enthalpy is 0.0934 ± 0.00237 kcal/mol in series [1] (x1 = 0.0797); 0.164 ± 0.00382 kcal/mol in series [1] (x1 = 0.1587); 0.22 ± 0.00478 kcal/mol in series [1] (x1 = 0.2384); 0.262 ± 0.00574 kcal/mol in series [1] (x1 = 0.3192); 0.29 ± 0.00621 kcal/mol in series [1] (x1 = 0.3901); 0.31 ± 0.00669 kcal/mol in series [1] (x1 = 0.4948). The excess molar enthalpy in series [1] (x1 = 0.5955) was determined as 0.307 ± 0.00669 kcal/mol; in series [1] (x1 = 0.6981), 0.281 ± 0.00598 kcal/mol; in series [1] (x1 = 0.8004), 0.225 ± 0.00502 kcal/mol; in series [1] (x1 = 0.9012), 0.135 ± 0.00311 kcal/mol.

In the case of `CC(=O)CC(C)C` [4-methylpentan-2-one] + CCCCCCO, the excess molar enthalpy in series [1] (x1 = 0.0995) was 0.134 ± 0.00311 kcal/mol; in series [1] (x1 = 0.2004) it was 0.234 ± 0.00526 kcal/mol; in series [1] (x1 = 0.3015), 0.302 ± 0.00645 kcal/mol; in series [1] (x1 = 0.4029) it was 0.344 ± 0.00741 kcal/mol; in series [1] (x1 = 0.5082) it was 0.361 ± 0.00765 kcal/mol; in series [1] (x1 = 0.5096), 0.36 ± 0.00765 kcal/mol. Also, the excess molar enthalpy in series [1] (x1 = 0.6091) came to 0.35 ± 0.00741 kcal/mol; in series [1] (x1 = 0.7086) it was 0.313 ± 0.00669 kcal/mol; in series [1] (x1 = 0.8049), 0.248 ± 0.0055 kcal/mol; in series [1] (x1 = 0.903), 0.144 ± 0.00335 kcal/mol.

Take `CCCCCCO` [hexan-1-ol]: in series [2], the mass density worked out at 815.2 ± 0.99 kg/m3.

With `CC(=O)CC(C)C` [4-methylpentan-2-one], the mass density in series [2] is 796.19 ± 0.63 kg/m3.

Take `CC(=O)CC(C)C` [4-methylpentan-2-one] + CO: the excess molar enthalpy in series [1] (x1 = 0.0523) was determined as 0.034 ± 0.00232 kcal/mol; in series [1] (x1 = 0.0998), 0.0604 ± 0.00335 kcal/mol; in series [1] (x1 = 0.1502), 0.0839 ± 0.0043 kcal/mol; in series [1] (x1 = 0.2002), 0.105 ± 0.00526 kcal/mol; in series [1] (x1 = 0.2495), 0.126 ± 0.00598 kcal/mol; in series [1] (x1 = 0.2954) it was 0.159 ± 0.00741 kcal/mol. Besides, the excess molar enthalpy stood at 0.192 ± 0.0086 kcal/mol in series [1] (x1 = 0.4019); 0.209 ± 0.00932 kcal/mol in series [1] (x1 = 0.5037); 0.211 ± 0.00932 kcal/mol in series [1] (x1 = 0.6059); 0.195 ± 0.00884 kcal/mol in series [1] (x1 = 0.707); 0.155 ± 0.00717 kcal/mol in series [1] (x1 = 0.8119); 0.0917 ± 0.00454 kcal/mol in series [1] (x1 = 0.908).

For `CCO` [ethanol], the mass density in series [2] was 785.15 ± 0.58 kg/m3.

As for `CCCCO` [butan-1-ol], the mass density in series [2] is recorded as 805.75 ± 0.69 kg/m3.

As to `CC(=O)CC(C)C` [4-methylpentan-2-one] + CCCCO, the excess molar enthalpy in series [1] (x1 = 0.1005) worked out at 0.124 ± 0.00287 kcal/mol; in series [1] (x1 = 0.1998), 0.212 ± 0.00478 kcal/mol; in series [1] (x1 = 0.2999), 0.272 ± 0.00598 kcal/mol; in series [1] (x1 = 0.3967) it was 0.312 ± 0.00669 kcal/mol; in series [1] (x1 = 0.3996), 0.309 ± 0.00669 kcal/mol; in series [1] (x1 = 0.4967) it was 0.331 ± 0.00717 kcal/mol. The excess molar enthalpy in series [1] (x1 = 0.5978) is 0.326 ± 0.00693 kcal/mol; in series [1] (x1 = 0.6981), 0.297 ± 0.00645 kcal/mol; in series [1] (x1 = 0.7978), 0.238 ± 0.00526 kcal/mol; in series [1] (x1 = 0.9006) it was 0.14 ± 0.00335 kcal/mol.
